Literature values, collected in patent publication US20040126318A1, “Methods, formulations and kits for monitoring and diagnosing gastric emptying and gastroparesis, and formulations for determining gastrointestinal motility” (priority 2002, published 2004).

For `CCN(CC)CCNC(=O)c1cc(Cl)c(N)cc1OC` [Metochlopramide], the “patients with serious side effects (drowsiness, nightmares, depression, Parkinsonism)” value (patients treated with this drug) is listed as “up to 50%”.
In the case of `COc1cc(N)c(Cl)cc1C(=O)NC1CCN(CCCOc2ccc(F)cc2)CC1OC` (centres unmarked) [cisapride], the cardiac side effects (reason for removal from the market by the FDA) is listed as “produced severe and sometimes fatal arrhythmias”.
